Values quoted from earlier work, collected in PMC8287861 (Frontiers in Microbiology, 2021).
Values after ≈ are worked out from the molar mass of the structure shown. Like-named read-outs stand apart in the source and are kept apart here.

How the values were obtained:
Pseudomonas aeruginosa [1] = tested on: Pseudomonas aeruginosa; design: method as in Lomovskaya et al. (2021); conditions: panel reflecting current MIC distribution (N = 500); QPX7728 at 8 μg/ml; ref Lomovskaya et al. (2021)
Pseudomonas aeruginosa [2] = tested on: Pseudomonas aeruginosa; design: method as in Lomovskaya et al. (2021); conditions: challenge panel, QPX7728 at 8 μg/ml, ref Lomovskaya et al. (2021)
[3] = tested on: carbapenem resistant Acinetobacter baumannii; conditions: ref Nelson et al., 2020b
[4] = tested on: KPC-producing strains of Klebsiella pneumoniae and blaKPC mutants; design: method as in Nelson et al., 2019; conditions: ref Nelson et al., 2019
β-lactamases = conditions: ref Hecker et al. (2020)
[5] = tested on: Enterobacterales producing ESBLs and carbapenemases; design: method as in Rubio-Aparicio et al., 2019; conditions: ref Rubio-Aparicio et al., 2019
[6] = 275 clinical isolates, meropenem alone

For `Cn1c(N)c(NC(=O)NCCN)c[n+]1CC1=C(C(=O)O)N2C(=O)[C@@H](NC(=O)/C(=N\OC(C)(C)C(=O)[O-])c3nsc(N)n3)[C@H]2SC1` [Ceftolozane, ceftolozane], the MIC50 (Pseudomonas aeruginosa [1]) is given as 0.5 µg/mL (≈ 0.75 µM), the MIC90 (Pseudomonas aeruginosa [1]) is given as 4 µg/mL (≈ 6 µM) and the MIC50 (Pseudomonas aeruginosa [2]; All (N = 290)) is given as 4 µg/mL (≈ 6 µM). For the same compound, the MIC90 (Pseudomonas aeruginosa [2]; All (N = 290)) was over 64 µg/mL, the MIC50 (Pseudomonas aeruginosa [2]; MBL (N = 61)) was over 64 µg/mL and the MIC90 (Pseudomonas aeruginosa [2]; MBL (N = 61)) was over 64 µg/mL. For the same compound, the MIC50 (Pseudomonas aeruginosa [2]; No MBL (N = 229)) was 2 µg/mL (≈ 3 µM) and the MIC90 (Pseudomonas aeruginosa [2]; No MBL (N = 229)) was over 64 µg/mL.
For `C[C@@H](O)[C@H]1C(=O)N2C(C(=O)O)=C(S[C@@H]3CN[C@H](C(=O)N(C)C)C3)[C@H](C)[C@H]12` [Meropenem, meropenem], the MIC50 [3, 6] is listed as 64 µg/mL (≈ 167 µM), the MIC90 [3, 6] is listed as over 64 µg/mL and the MIC90 of meropenem ([3]; with QPX7728 at 4 μg/ml) is listed as 8 µg/mL. For the same compound, the MIC90 of meropenem ([3]; with QPX7728 at 8 μg/ml) was 4 µg/mL, the “increase in meropenem potency” value ([3]; with increasing concentrations of QPX7728 (1–16 μg/ml)) was 8–16 fold and the MIC ([4]; KP1252, KPC-3, TEM-1, SHV-11/FL) was 64 µg/mL (≈ 167 µM). For the same compound, the MIC ([4]; KPM3191, KPC-3:: DDK duplication at aa#831 (KPC-29)) was 4 µg/mL (≈ 10.4 µM), the MIC ([4]; KPM3192, KPC-3:: D179Y (KPC-31)) was 0.5 µg/mL (≈ 1.3 µM) and the MIC ([4]; KPM3200, KPC-3::duplication of EAVI (aa#278)) was 64 µg/mL (≈ 167 µM). The MIC ([4]; KPM3205, KPC-3 ::duplication of KKDY (aa#273)) was 16 µg/mL (≈ 41.7 µM), the MIC ([4]; KPM3210, KPC-2::D179N) was 4 µg/mL (≈ 10.4 µM) and the MIC ([4]; KPM3212, deletion of ELNSAI at aa#497) was 1 µg/mL (≈ 2.61 µM). The MIC ([4]; KPM3213, KPC-2::D179Y (KPC-31), selected from KP1099) was 4 µg/mL (≈ 10.4 µM), the MIC ([4]; KPM3214, KPC-2::D179A) was 2 µg/mL (≈ 5.22 µM) and the MIC ([4]; KPM3493, KPC-3::duplication of EL at aa#164 (KPC-25)) was 1 µg/mL (≈ 2.61 µM). The MIC ([4]; KPM3494, KPC-3::R167S) was 32 µg/mL (≈ 83.4 µM), the MIC ([4]; KPM3495, KPC-3::A175V) was 32 µg/mL (≈ 83.4 µM) and the MIC ([4]; KPM3511, KPC-3::P174Q) was 4 µg/mL (≈ 10.4 µM). The MIC ([4]; KPM3512, KPC-3:: P174L) was 8 µg/mL (≈ 20.9 µM), the MIC50 (Pseudomonas aeruginosa [1]) was 0.5 µg/mL (≈ 1.3 µM) and the MIC90 (Pseudomonas aeruginosa [1]) was 16 µg/mL (≈ 41.7 µM). The MIC50 (Pseudomonas aeruginosa [2]; All (N = 290)) was 16 µg/mL (≈ 41.7 µM), the MIC90 (Pseudomonas aeruginosa [2]; All (N = 290)) was over 64 µg/mL and the MIC50 (Pseudomonas aeruginosa [2]; MBL (N = 61)) was over 64 µg/mL. The MIC90 (Pseudomonas aeruginosa [2]; MBL (N = 61)) was over 64 µg/mL, the MIC50 (Pseudomonas aeruginosa [2]; No MBL (N = 229)) was 16 µg/mL (≈ 41.7 µM) and the MIC90 (Pseudomonas aeruginosa [2]; No MBL (N = 229)) was 64 µg/mL (≈ 167 µM).
In the case of `CSCC(=O)N[C@H]1Cc2ccc(F)c(C(=O)O)c2OB1O` [RPX7323], the “β-lactamase inhibition (in words)” value (β-lactamases) is given as “capable of potently inhibiting serine enzymes from classes A-D”.
For `COc1ccc2c(c1C(=O)O)OB(O)[C@@H](Sc1nncs1)C2` [RPX7546], the “β-lactamase inhibition (in words)” value (β-lactamases) is given as “improved potency against MBLs”.
In the case of `C[C@@H](O)[C@H]1C(=O)N2C(C(=O)O)=C(SC3CN(C4=NCCS4)C3)[C@H](C)[C@H]12` [Tebipenem], the MIC50 ([5]; All Enterobacterales (N = 972)) is given as 0.25 µg/mL (≈ 0.652 µM), the MIC90 ([5]; All Enterobacterales (N = 972)) is given as over 64 µg/mL and the MIC50 ([5]; CRE KPC (N = 292)) is given as 64/>64 μg/ml. The MIC90 ([5]; CRE KPC (N = 292)) was 64/>64 μg/ml, the MIC50 ([5]; CRE MBL (N = 226)) was 32 µg/mL (≈ 83.4 µM) and the MIC90 ([5]; CRE MBL (N = 226)) was over 64 µg/mL. The MIC50 ([5]; CRE OXA-48 (N = 47)) was 32 µg/mL (≈ 83.4 µM), the MIC90 ([5]; CRE OXA-48 (N = 47)) was 64 µg/mL (≈ 167 µM) and the MIC50 ([5]; ESBLs, no CRE (N = 371)) was at most 0.06 µg/mL. For the same compound, the MIC90 ([5]; ESBLs, no CRE (N = 371)) was 0.5 µg/mL (≈ 1.3 µM), the MIC50 ([5]; Non-CP CRE) was 8 µg/mL (≈ 20.9 µM) and the MIC90 ([5]; Non-CP CRE) was 16 µg/mL (≈ 41.7 µM).
